Non-standard residues stand in square brackets, D forms with d. Residues, ends and D or L forms follow the SMILES beside them. *: point of attachment. Phenylacetyl(2,3,4,5,6-F5) = O=C(Cc1c(F)c(F)c(F)c(F)c1F)*; Phe(F5) = N[C@@H](Cc1c(F)c(F)c(F)c(F)c1F)C(=O)O; hArg = N=C(N)NCCCC[C@H](N)C(=O)O; 12Ado = NCCCCCCCCCCCC(=O)O; Nle = CCCC[C@H](N)C(=O)O; Orn = NCCC[C@H](N)C(=O)O; Abu = CC[C@H](N)C(=O)O; PhAc = O=C(Cc1ccccc1)*
Assays:
CFPAC-1 cells = assay: In vitro cell viability, pancreatic cancer CFPAC-1; assay type: cell-based, human; settings: 5 μM, 72 h; for Relative inhibitory potency, Pancreatic CFPAC-1: relative to MIA602 = 1, Table 3A
In short: (§1)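 Cells grown to ~60% confluence and serum-starved 24 h in 0.5% FBS, then exposed to antagonists at 5 μM (some at 2 μM) for 72 h in quintuplicate, with medium replaced every 48 h. Viability read by CellTiter 96 AQueous One (MTS). Values are inhibition relative to MIA602.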

NCI-N87 cells = assay: In vitro cell viability (CellTiter 96), stomach cancer N87; assay type: cell-based, human; settings: 5 μM, 72 h; for Relative inhibitory potency, Stomach N87: relative to MIA602 = 1, Table 3A
Method: (§2) The inhibitory effects of the various synthesized GHRH antagonists were tested in cell proliferation assays in various human cancer cell lines including stomach cancer (KATOIII, N87), colon cancer (HT-29), urothelial cancer (J82, RT4), pancreatic cancer (PANC-1, CFPAC-1), prostatic cancer (PC3), breast cancer (MX-1, HCC1806), ovarian cancer (SK-OV-3, OVCAR-3) and lung cancer (HCC827, H460).
(§3) Cell culture. Human cancer cell lines including pancreatic (PANC-1 and CFPAC-1), lung (HCC827 and H460), stomach (NCI-N87 and KATOIII), urothelial (J82, RT4), prostatic (PC3), breast (MX-1 and HCC 1806), colorectal (HT-29), and ovarian (SK-OV-3 and OVCAR-3) were obtained from the American Type Culture Collection (ATCC) and cultured at 37° C. in a humidified 95% air/5% CO2 atmosphere in the medium recommended by ATCC.
(§4) In vitro cell viability. Cell viability was analyzed as follows: cancer cells including pancreatic (PANC-1 and CFPAC-1), lung (HCC827 and H460), stomach (NCI-N87 and KATOIII), urothelial (J82, RT4), prostatic (PC3) and breast (MX-1 and HCC 1806), colorectal (HT-29) and ovarian (SK-OV-3 and OVCAR-3) were grown on 96 well plates to ˜60% confluence, the cells were starved for 24 h in culture medium containing 0.5% FBS. Cells were then treated with GHRH antagonists MIA602 AVR compounds at concentrations of 1, 2.5 or 5 μM, or vehicle (0.1% DMSO) in quintuplicates for 72 hours. The medium was replaced every 48 hours. Cell viability was measured using CellTiter 96 aqueous one solution kit (Promega). Inhibitory effects of tested AVR compounds in comparison to that of MIA602 are presented as inhibitory potency.
(§5) Inhibitory effects of selected AVR compounds in comparison to that of MIA602 are presented as inhibitory potency (e.g., percentage of inhibition). […] The cell lines tested including lung cancer HCC827 (FIG. 2A), pancreatic cancer CFPAC-1 (FIG. 2B), stomach cancer N87 (FIG. 2C), colon cancer HT-29 (FIG. 2D), breast cancers MX-1 and HCC1806 (FIGS. 2E, F). Based on the results of cell proliferation assay after cancer cells were treated with antagonist at concentration of 5 μM for 72H, the relative inhibitory potency of AVR antagonists in comparison to MIA-602 is summarized in Table 3 A and B. Over 60 AVR compounds were tested in 12 cancer cell lines.
Based on the results of cell proliferation assay after cancer cells were treated with antagonist at concentration of 5 µM for 72H, * at concentration of 2 µM for 72 H.

PANC-1 cells = assay: In vitro cell viability, pancreatic cancer PANC-1; assay type: cell-based, human; settings: 5 μM, 72 h; relative to MIA602 = 1; Table 3A
Method: as §2, §3, §4, §5

NCI-N87 xenograft = assay: Xenograft tumor growth in nude mice, stomach cancer N87; assay type: in vivo; settings: Panel D, 10 weeks
Method: The peptides' activity was compared with GHRH antagonist MIA-602. All statistical analyzses were performed from comparing GHRA antagonists to non-treated tumor (control).
Peptides and chemicals. GHRH antagonists MIA-602 and AVR-GHRH antagonists (see Table 2 above) were synthesized by solid phase methods and purified by HPLC. The peptides were dissolved in DMSO and further diluted in 10% 1, 2-propanediol. The final concentration of peptides was 50 µg/ml in 10% 1, 2-propanediol containing 0.1% of DMSO.
as §3, with “(NCI-N87), prostate” for “(NCI-N87 and KATOIII), urothelial (J82, RT4), prostatic”, “brest” for “breast”, “HCC-1806),” for “HCC 1806),”
Xenograft models of human cancers in nude mice. Female athymic (NCr nu/nu) nude mice, 5-to 6-weeks-old, obtained from the Envigo labs (Tampa, FL), were housed in laminar airflow cabinets under pathogen-free conditions with a 12-h light/12-h dark schedule, and were fed autoclaved standard chow and water. To generate mice with xenografted tumors, tumor xenografts were initiated by subcutaneous (s.c.) injection of […] human cancer cells into female nude mice. After about 4 weeks the resulting tumors were dissected and collected after removing necrosis tissues. The tumors were then cut into particles with size of ˜3 mm3 and transplanted s.c. by trocar needle into experimental animals. When tumors grew to the size of 50-60 mm3 (by volume), […] of 5 μg of GHRH antagonists MIA-602 or AVR-compounds (2-10 μg as indicated), or vehicle solutions (0.1% DMSO in 10% 1, 2-propanediol) respectively. Tumor sizes were measured weekly.
Statistical analysis. One-way ANOVA followed by Bonferroni comparison were performed. Data are expressed as Mean±SEM. To determine statistical significance between animal groups, two-tailed Student's t-test was conducted. Differences were considered significant when p<0.05.
Results. […] FIG. 1A-N represents in vivo inhibition of tumor growth during the treatment with GHRH antagonist MIA-602 and selected AVR antagonists in nude mice xenografted with various human tumors including pancreatic cancer PANC-1 (FIG. 1A) and CFPAC-1 (FIG. 1I); lung cancer HCC827 (FIGS. 1B, C) and H460 (FIG. 1H); stomach cancer N87 (FIGS. 1D-F); colon cancer HT-29 (FIG. 1G); breast cancer MX-1 and HCC-1806 (FIGS. 1J, K); ovarian cancer SK-OV-3 and OVACAR-3 (FIGS. 1L, M) and prostate cancer PC3 (FIG. 1N). See also Table 5.

J82 cells = assay: In vitro cell viability, urothelial cancer J82; assay type: cell-based, human; settings: 5 μM, 72 h; relative to MIA602 = 1; Table 3A
Method: as §2, §3, §4, §5

HCC827 cells = assay: In vitro cell viability, lung cancer HCC827; assay type: cell-based, human; settings: 5 μM, 72 h; for Relative inhibitory potency, Lung HCC827: relative to MIA602 = 1, Table 3A
In short: as §1

KATOIII cells = assay: In vitro cell viability, stomach cancer KATOIII; assay type: cell-based, human; settings: 5 μM, 72 h; relative to MIA602 = 1; Table 3A
Method: as §2, §3, §4, §5

| SMILES | In vitro relative inhibitory potency in comparison to MIA-602, CFPAC-1 (CFPAC-1 cells; Table 3B) | Relative inhibitory potency, Pancreatic CFPAC-1 (CFPAC-1 cells) | In vitro relative inhibitory potency in comparison to MIA-602, NCI-N87 (NCI-N87 cells; Table 3B) | Relative inhibitory potency, Stomach N87 (NCI-N87 cells) | Relative inhibitory potency, Pancreatic Panc-1 (PANC-1 cells) | Tumor Growth % (NCI-N87 xenograft; 2 μg/day s.c.) [%] | % Inhibition (NCI-N87 xenograft; 2 μg/day s.c., vs control) [%] | Tumor Growth % (NCI-N87 xenograft; 5 μg/day s.c.) [%] | Relative inhibitory potency, Urothelial J82 (J82 cells) | In vitro relative inhibitory potency in comparison to MIA-602, HCC827 (HCC827 cells; Table 3B) | Relative inhibitory potency, Lung HCC827 (HCC827 cells) | Relative inhibitory potency, Stomach KATOIII (KATOIII cells) |
| --- | --- | --- | --- | --- | --- | --- | --- | --- | --- | --- | --- | --- |
| CCCC[C@H](NC(=O)[C@@H](NC(=O)[C@H](CC(=O)O)NC(=O)[C@H](CCC(N)=O)NC(=O)[C@H](CC(C)C)NC(=O)[C@H](CC(C)C)NC(=O)[C@H](CCCN)NC(=O)[C@H](Cc1c[nH]cn1)NC(=O)[C@H](C)NC(=O)[C@H](CO)NC(=O)[C@H](CC(C)C)NC(=O)[C@H](CCC(N)=O)NC(=O)[C@H](CC)NC(=O)[C@H](CC(C)C)NC(=O)[C@@H](NC(=O)[C@H](CCCN)NC(=O)[C@H](Cc1c[nH]cn1)NC(=O)[C@H](Cc1ccc(OC)cc1)NC(=O)[C@H](CCCCNC(=N)N)NC(=O)[C@H](C)NC(=O)[C@@H](NC(=O)[C@H](Cc1c(F)c(F)c(F)c(F)c1F)NC(=O)[C@@H](NC(=O)[C@H](C)NC(=O)[C@H](CC(=O)O)NC(=O)[C@@H](CCCNC(=N)N)NC(=O)[C@H](Cc1ccc(O)cc1)NC(=O)CCCCCCCCCCCNC(=O)Cc1ccccc1)[C@@H](C)CC)[C@@H](C)O)C(C)C)[C@@H](C)CC)C(=O)N[C@H](CCCNC(=N)N)C(=O)N[C@@H](CCCCNC(=N)N)C(N)=O [MIA-602, PhAC-Ada, Tyr D-Arg, Asp, Ala, Ile, 5FPhe, Thr, Ala, Har, Tyr(Me), His, Orn, Val, Leu, Abu, Gin, Leu, Ser, Ala, His, Orn, Leu, Leu, Gin, Asp, Ile, Nle, D-Arg, Har NH2, reference compound] ({PhAc-12Ado}-Y[dR]DAI[Phe(F5)]TA[hArg]Y(Me)H[Orn]VL[Abu]QLSAH[Orn]LLQDI[Nle][dR][hArg]-NH2) | 1 | 1 | 1 | 1 | 1 | 1065.00 | 13.0 | 767.00 | 1 | 1 | 1 | 1 |
| CCCC[C@H](NC(=O)[C@@H](NC(=O)[C@H](CC(=O)O)NC(=O)[C@H](CCC(N)=O)NC(=O)[C@H](CC(C)C)NC(=O)[C@H](CC(C)C)NC(=O)[C@H](CCCCN)NC(=O)[C@H](CCCNC(=N)N)NC(=O)[C@H](C)NC(=O)[C@H](CO)NC(=O)[C@H](CC(C)C)NC(=O)[C@H](CCC(N)=O)NC(=O)[C@H](CC)NC(=O)[C@H](CC(C)C)NC(=O)[C@@H](NC(=O)[C@H](CCCCN)NC(=O)[C@H](CCCNC(=N)N)NC(=O)[C@H](Cc1ccc(OC)cc1)NC(=O)[C@H](CCCCNC(=N)N)NC(=O)[C@H](C)NC(=O)[C@@H](NC(=O)[C@H](Cc1c(F)c(F)c(F)c(F)c1F)NC(=O)[C@@H](NC(=O)[C@H](C)NC(=O)[C@H](CC(=O)O)NC(=O)[C@@H](CCCNC(=N)N)NC(=O)[C@H](Cc1ccc(O)cc1)NC(=O)CCCCCCCCCCCNC(=O)Cc1c(F)c(F)c(F)c(F)c1F)[C@@H](C)CC)[C@@H](C)O)C(C)C)[C@@H](C)CC)C(=O)N[C@H](CCCNC(=N)N)C(=O)N[C@@H](CCCCNC(=N)N)C(=O)NC [AVR-235] ({Phenylacetyl(2,3,4,5,6-F5)-12Ado}-Y[dR]DAI[Phe(F5)]TA[hArg]Y(Me)RKVL[Abu]QLSARKLLQDI[Nle][dR][hArg]-NHMe) |  | 1.399 |  | 2.911 | 1.139 | 558.60 |  |  | 1.518 |  | 1.506 | 1.220 |
